Biological target: T1, saccharase (Sus scrofa, UniProt P56729)
T1 construct: sucrase subunit of the sucrase-isomaltase complex hydrolyses sucrose
Assay: In vitro saccharase test
Type: biochemical, pig
Conditions: isolated isomer, Example 19
Procedure: One saccharase inhibitor unit (SIU) is defined as the amount of inhibitor which inhibits two saccharase units to the extent of 50%. One saccharase unit (SU) is the amount of enzyme which under the test conditions specified splits 1 μmol of sucrose to glucose and fructose per minute. The μmols of glucose formed are determined quantitatively by means of the glucose oxidase reaction under conditions under which a further splitting of the sucrose by the saccharase no longer takes place. To carry out the test, 0.05 ml of solubilized saccharase [from the mucous membrane of the small intestine of the pig, according to B. Borgastrom, A. Dahlquist, Acta Chem. Scand. 12, (1958), page 1,997], diluted with 0.1 M sodium maleate buffer of pH 6.0 to a SU content adjusted to 0.12 SU is mixed with 0-20 μg of inhibitor or 0-20 μl of the solution to be tested and brought up to 0.1 ml with 0.1 M sodium maleate buffer of pH 6.0. The mixture is equilibrated for 10 minutes at 35° C and 0.1 ml of an 0.05 M sucrose solution in 0.1 M sodium maleate buffer of pH 6.0, pre-warmed to 35° C, is then added. The mixture is incubated for 20 minutes at 35° C, the saccharase reaction is stopped by addition of 1 ml of glucose oxidase reagent, and the incubation is continued for a further 30 minutes at 35° C. (The glucose oxidase reagent is prepared by dissolving 2 mg of glucose oxidase, Boehringer, No. 15,423, in 100 ml of 0.565 M tris-HCl buffer of pH 7.0 and subsequently adding 1 ml of detergent solution (2 g of Triton X 100 + 8 g of 95% strength and analytical grade ethanol), 1 ml of dianisidine solution (260 mg of o-dianisidine. 2HCl in 20 ml of H2 O) and 0.5 ml of 0.1% strength aqueous peroxidase solution, Boehringer, No. 15,302). Thereafter, 1 ml of 50% strength H2 SO4 is added and a measurement carried out at 545 nm against a corresponding blank. To evaluate the results, the percentage inhibition of the saccharase employed is calculated and converted to SIU/g of SIU/liter from the 50% inhibition point, using a glucose calibration curve.

T1 sequence (P56729 with tags, fused parts or gaps): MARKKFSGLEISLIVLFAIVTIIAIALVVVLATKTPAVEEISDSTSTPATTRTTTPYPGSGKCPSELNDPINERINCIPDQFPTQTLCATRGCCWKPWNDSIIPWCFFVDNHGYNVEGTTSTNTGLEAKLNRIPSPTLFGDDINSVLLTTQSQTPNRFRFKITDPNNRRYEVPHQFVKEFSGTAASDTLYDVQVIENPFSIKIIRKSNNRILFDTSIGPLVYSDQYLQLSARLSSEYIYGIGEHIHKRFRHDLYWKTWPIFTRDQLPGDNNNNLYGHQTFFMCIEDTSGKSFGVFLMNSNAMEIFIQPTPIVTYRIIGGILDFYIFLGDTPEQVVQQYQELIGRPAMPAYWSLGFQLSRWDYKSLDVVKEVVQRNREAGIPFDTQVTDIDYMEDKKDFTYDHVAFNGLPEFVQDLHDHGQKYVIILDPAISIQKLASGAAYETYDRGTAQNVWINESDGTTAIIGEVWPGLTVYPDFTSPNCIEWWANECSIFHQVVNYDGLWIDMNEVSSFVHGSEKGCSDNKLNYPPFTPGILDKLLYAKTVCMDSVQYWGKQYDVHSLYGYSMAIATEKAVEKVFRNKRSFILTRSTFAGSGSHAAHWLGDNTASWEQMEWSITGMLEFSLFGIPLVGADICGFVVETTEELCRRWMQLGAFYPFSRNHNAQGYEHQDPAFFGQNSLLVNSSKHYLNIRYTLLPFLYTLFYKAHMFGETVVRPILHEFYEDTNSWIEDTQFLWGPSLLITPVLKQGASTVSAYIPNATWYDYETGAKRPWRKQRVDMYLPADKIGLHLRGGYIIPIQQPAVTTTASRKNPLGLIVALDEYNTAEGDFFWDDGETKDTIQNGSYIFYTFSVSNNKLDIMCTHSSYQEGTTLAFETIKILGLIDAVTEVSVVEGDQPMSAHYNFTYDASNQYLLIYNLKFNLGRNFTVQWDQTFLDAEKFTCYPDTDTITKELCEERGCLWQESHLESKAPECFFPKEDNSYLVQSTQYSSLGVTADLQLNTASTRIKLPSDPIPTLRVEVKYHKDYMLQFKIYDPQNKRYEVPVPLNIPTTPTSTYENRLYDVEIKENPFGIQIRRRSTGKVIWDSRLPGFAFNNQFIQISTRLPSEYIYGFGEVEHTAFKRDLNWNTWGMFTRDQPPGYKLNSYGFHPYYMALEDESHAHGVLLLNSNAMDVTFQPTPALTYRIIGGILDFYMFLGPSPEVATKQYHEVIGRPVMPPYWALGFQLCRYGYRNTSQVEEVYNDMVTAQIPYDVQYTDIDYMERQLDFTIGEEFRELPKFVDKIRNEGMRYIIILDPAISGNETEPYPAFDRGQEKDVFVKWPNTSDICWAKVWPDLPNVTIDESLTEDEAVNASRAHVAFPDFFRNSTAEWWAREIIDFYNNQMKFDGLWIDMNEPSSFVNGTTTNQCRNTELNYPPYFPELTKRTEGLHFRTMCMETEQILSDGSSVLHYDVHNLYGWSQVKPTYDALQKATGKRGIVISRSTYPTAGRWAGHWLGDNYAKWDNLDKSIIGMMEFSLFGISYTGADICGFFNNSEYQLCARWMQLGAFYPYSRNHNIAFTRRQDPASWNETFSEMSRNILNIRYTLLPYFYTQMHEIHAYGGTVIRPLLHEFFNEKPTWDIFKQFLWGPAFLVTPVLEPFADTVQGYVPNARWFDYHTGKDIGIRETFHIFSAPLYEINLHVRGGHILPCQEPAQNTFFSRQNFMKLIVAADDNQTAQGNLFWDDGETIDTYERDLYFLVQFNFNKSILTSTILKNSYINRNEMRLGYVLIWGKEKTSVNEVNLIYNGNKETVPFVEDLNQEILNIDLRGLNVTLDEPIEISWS

in vitro saccharase inhibiting activity: 19000 SIU/g
Structure (SMILES): C[C@H]1O[C@H](O[C@H]2[C@H](O)[C@@H](O)[C@@H](O[C@H]3[C@H](O)[C@@H](O)[C@@H](O[C@H]4[C@H](O)[C@@H](O)C(O)O[C@@H]4CO)O[C@@H]3CO)O[C@@H]2CO)[C@H](O)[C@@H](O)[C@@H]1N[C@H]1C=C(CO)[C@@H](O)[C@H](O)[C@H]1O (stereo partly drawn) [Formula IV, O-{4,6-bisdesoxy-4-[1S-(1,4,6/5)-4,5,6-trihydroxy-3-hydroxymethylcyclohex-2-en-1-ylamino]-α-D-glucopyranosyl}-(1→4)-O-α-D-glucopyranosyl-(1→4)-O-α-D-glucopyranosyl-(1→4)-D-glycopyranose]
